How the values were obtained:
Type in all cases: in vivo
[1] = test system: Surinam grass (Brachiaria decumbens); assay: Test B postemergence; details: 13 to 15 days
In short: (§1)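 Post-treatment, species sat 13–15 days under greenhouse conditions before visual scoring against controls, 0 (no effect) through 100 (complete control). Application preemergence to sown seeds or postemergence at 1- to 4-leaf stage, using a non-phytotoxic solvent/surfactant formulation.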

[2] = test system: barnyardgrass (Echinochloa crus-galli); assay: Test B postemergence; details: 13 to 15 days
In short: as §1

[3] = test system: blackgrass (Alopecurus myosuroides); assay: Test B postemergence; details: 13 to 15 days
In short: as §1

corn (Zea mays) [4] = assay: Test B postemergence; details: 13 to 15 days
In short: as §1

[5] = test system: giant foxtail (Setaria faberii); assay: Test B postemergence; details: 13 to 15 days
In short: as §1

[6] = test system: morning glory (Ipomoea hederacea); assay: Test B postemergence; details: 13 to 15 days
In short: as §1

[7] = test system: pigweed (Amaranthus retroflexus); assay: Test B postemergence; details: 13 to 15 days
In short: as §1

[8] = test system: velvetleaf (Abutilon theophrasti); assay: Test B postemergence; details: 13 to 15 days
In short: as §1

[9] = test system: wheat (Triticum aestivum); assay: Test B postemergence; details: 13 to 15 days
In short: as §1

[10] = test system: Surinam grass (Brachiaria decumbens); assay: Test B preemergence
In short: as §1

[11] = test system: barnyardgrass (Echinochloa crus-galli); assay: Test B preemergence
In short: as §1

[12] = test system: cocklebur (Xanthium strumarium); assay: Test B preemergence
In short: as §1

corn (Zea mays) [13] = assay: Test B preemergence
In short: as §1

[14] = test system: crabgrass (Digitaria sanguinalis); assay: Test B preemergence
In short: as §1

[15] = test system: giant foxtail (Setaria faberii); assay: Test B preemergence
In short: as §1

[16] = test system: lambsquarters (Chenopodium album); assay: Test B preemergence
In short: as §1

[17] = test system: morning glory (Ipomoea hederacea); assay: Test B preemergence
In short: as §1

[18] = test system: pigweed (Amaranthus retroflexus); assay: Test B preemergence
In short: as §1

rice (Oryza saliva) [19] = assay: Test B preemergence
In short: as §1

[20] = test system: velvetleaf (Abutilon theophrasti); assay: Test B preemergence
In short: as §1

[21] = test system: barnyardgrass (Echinochloa crus-galli); assay: Test C flooded paddy test; details: for Barnyardgrass plant response rating: Flooded Paddy, scale 0 to 100, 0 no effect, 100 complete control; for Plant response rating, Barnyardgrass: flooded paddy test, scale 0 to 100 (0 no effect, 100 complete control)
In short: (§2)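 2-leaf-stage plants, flooded paddy; treated; greenhouse 12–14 days; compared with controls by eye; rated 0–100 (0 none, 100 complete control).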

[22] = test system: duck salad (Heteranthera limosa); assay: Test C flooded paddy test; details: for Ducksalad plant response rating: Flooded Paddy, scale 0 to 100, 0 no effect, 100 complete control; for Plant response rating, Ducksalad: flooded paddy test, scale 0 to 100 (0 no effect, 100 complete control)
In short: as §2

rice (Oryza saliva) [23] = assay: Test C flooded paddy test; details: for Rice plant response rating: Flooded Paddy, scale 0 to 100, 0 no effect, 100 complete control; for Plant response rating, Rice: flooded paddy test, scale 0 to 100 (0 no effect, 100 complete control)
In short: as §2

[24] = test system: smallflower flatsedge (Cyperus difformis); assay: Test C flooded paddy test; details: for Flatsedge plant response rating: Flooded Paddy, scale 0 to 100, 0 no effect, 100 complete control; for Plant response rating, Flatsedge: flooded paddy test, scale 0 to 100 (0 no effect, 100 complete control)
In short: as §2

Nightshade = assay: Test C preemergence; details: Rate 500 g/ha, visual evaluation after 12 to 14 days
Sunflower = assay: Test C preemergence; details: Rate 250 g/ha, scale 0 to 100, 0 no effect, 100 complete control
[25] = Rate 125 g/ha, scale 0 (no effect) to 100 (complete control)
[26] = Rate 500 g/ha, scale 0 to 100, 0 is no effect, 100 is complete control
[27] = Preemergence, Rate 500 g/ha, scale 0 to 100, 0 no effect, 100 complete control
[28] = preemergence, Rate 125 g/ha, scale of 0 to 100 where 0 is no effect and 100 is complete control, 13 to 15 days

CC(C)(C)c1ccn(C2CCN(c3cccc(I)c3)C2=O)n1 (stereo not shown) [Compound 88]
Plant response rating, Surinam grass [1, 25]: 0 | Plant response rating, Surinam grass [1, 26]: 0 | Plant response rating, Barnyardgrass [2, 25]: 0 | Plant response rating, Barnyardgrass [2, 26]: 90 | Plant response rating, Blackgrass [3, 25]: 0 | Plant response rating, Blackgrass [3, 26]: 0 | Plant response rating, Corn (corn (Zea mays) [4]; [25]): 0 | Plant response rating, Corn (corn (Zea mays) [4]; [26]): 10 | Plant response rating, Foxtail, Giant [5, 25]: 20 | Plant response rating, Foxtail, Giant [5, 26]: 60 | Plant response rating, Morningglory [6, 25]: 20 | Plant response rating, Morningglory [6, 26]: 70 | Plant response rating, Pigweed [7, 25]: 90 | Plant response rating, Pigweed [7, 26]: 100 | Plant response rating, Velvetleaf [8, 25]: 0 | Plant response rating, Velvetleaf [8, 26]: 40 | Plant response rating, Wheat [9, 25]: 0 | Plant response rating, Wheat [9, 26]: 30 | Plant response rating, Surinam grass [10, 27]: 100 | Plant response rating, Surinam grass [10, 28]: 70 | Plant response rating, Barnyardgrass [11, 27]: 100 | Plant response rating, Barnyardgrass [11, 28]: 100 | Plant response rating, Cocklebur [12, 27]: 0 | Plant response rating, Cocklebur [12, 28]: 0 | Plant response rating, Corn (corn (Zea mays) [13]; [27]): 20 | Plant response rating, Corn (corn (Zea mays) [13]; [28]): 20 | Plant response rating, Crabgrass [14, 27]: 100 | Plant response rating, Crabgrass [14, 28]: 100 | Plant response rating, Foxtail, Giant [15, 27]: 100 | Plant response rating, Foxtail, Giant [15, 28]: 100 | Plant response rating, Lambsquarters [16, 27]: 100 | Plant response rating, Lambsquarters [16, 28]: 100 | Plant response rating, Morningglory [17, 27]: 0 | Plant response rating, Morningglory [17, 28]: 0 | Plant response rating, Pigweed [18, 27]: 100 | Plant response rating, Pigweed [18, 28]: 100 | Plant response rating, Rice (rice (Oryza saliva) [19]; [27]): 100 | Plant response rating, Rice (rice (Oryza saliva) [19]; [28]): 0 | Plant response rating, Velvetleaf [20, 27]: 0 | Plant response rating, Velvetleaf [20, 28]: 0 | Barnyardgrass plant response rating ([21]; Rate 250 g/ha): 100 | Barnyardgrass plant response rating ([21]; Rate 500 g/ha): 100 | Plant response rating, Barnyardgrass ([21]; Rate 62 g/ha): 30 | Plant response rating, Barnyardgrass ([21]; Rate 125 g/ha): 100 | Ducksalad plant response rating ([22]; Rate 250 g/ha): 60 | Ducksalad plant response rating ([22]; Rate 500 g/ha): 60 | Plant response rating, Ducksalad ([22]; Rate 62 g/ha): 0 | Plant response rating, Ducksalad ([22]; Rate 125 g/ha): 10 | Rice plant response rating (rice (Oryza saliva) [23]; Rate 250 g/ha): 30 | Rice plant response rating (rice (Oryza saliva) [23]; Rate 500 g/ha): 70 | Plant response rating, Rice (rice (Oryza saliva) [23]; Rate 62 g/ha): 0 | Plant response rating, Rice (rice (Oryza saliva) [23]; Rate 125 g/ha): 20 | Flatsedge plant response rating ([24]; Rate 250 g/ha): 100 | Flatsedge plant response rating ([24]; Rate 500 g/ha): 100 | Plant response rating, Flatsedge ([24]; Rate 62 g/ha): 90 | Plant response rating, Flatsedge ([24]; Rate 125 g/ha): 90 | Plant response rating (0 to 100), Nightshade (Nightshade): 80 | Plant response rating, Sunflower (Sunflower): 20

CCC(C)c1ccn(C2CCN(c3cccc(OC)c3)C2=O)n1 (stereo not shown) [Compound 95]
Plant response rating, Surinam grass [1, 25]: 0 | Plant response rating, Surinam grass [1, 26]: 0 | Plant response rating, Barnyardgrass [2, 25]: 0 | Plant response rating, Barnyardgrass [2, 26]: 30 | Plant response rating, Blackgrass [3, 25]: 0 | Plant response rating, Blackgrass [3, 26]: 0 | Plant response rating, Corn (corn (Zea mays) [4]; [25]): 0 | Plant response rating, Corn (corn (Zea mays) [4]; [26]): 0 | Plant response rating, Foxtail, Giant [5, 25]: 0 | Plant response rating, Foxtail, Giant [5, 26]: 0 | Plant response rating, Morningglory [6, 26]: 20 | Plant response rating, Pigweed [7, 26]: 60 | Plant response rating, Velvetleaf [8, 26]: 0 | Plant response rating, Wheat [9, 26]: 0 | Plant response rating, Surinam grass [10, 27]: 90 | Plant response rating, Surinam grass [10, 28]: 60 | Plant response rating, Barnyardgrass [11, 27]: 100 | Plant response rating, Barnyardgrass [11, 28]: 90 | Plant response rating, Cocklebur [12, 27]: 60 | Plant response rating, Cocklebur [12, 28]: 0 | Plant response rating, Corn (corn (Zea mays) [13]; [27]): 50 | Plant response rating, Corn (corn (Zea mays) [13]; [28]): 20 | Plant response rating, Crabgrass [14, 27]: 100 | Plant response rating, Crabgrass [14, 28]: 100 | Plant response rating, Foxtail, Giant [15, 27]: 100 | Plant response rating, Foxtail, Giant [15, 28]: 100 | Plant response rating, Lambsquarters [16, 27]: 100 | Plant response rating, Lambsquarters [16, 28]: 100 | Plant response rating, Morningglory [17, 27]: 60 | Plant response rating, Morningglory [17, 28]: 0 | Plant response rating, Pigweed [18, 27]: 100 | Plant response rating, Pigweed [18, 28]: 100 | Plant response rating, Rice (rice (Oryza saliva) [19]; [27]): 100 | Plant response rating, Rice (rice (Oryza saliva) [19]; [28]): 90 | Plant response rating, Velvetleaf [20, 27]: 50 | Plant response rating, Velvetleaf [20, 28]: 0 | Barnyardgrass plant response rating ([21]; Rate 250 g/ha): 100 | Barnyardgrass plant response rating ([21]; Rate 500 g/ha): 100 | Plant response rating, Barnyardgrass ([21]; Rate 62 g/ha): 70 | Plant response rating, Barnyardgrass ([21]; Rate 125 g/ha): 70 | Ducksalad plant response rating ([22]; Rate 250 g/ha): 100 | Ducksalad plant response rating ([22]; Rate 500 g/ha): 100 | Plant response rating, Ducksalad ([22]; Rate 62 g/ha): 70 | Plant response rating, Ducksalad ([22]; Rate 125 g/ha): 90 | Rice plant response rating (rice (Oryza saliva) [23]; Rate 250 g/ha): 70 | Rice plant response rating (rice (Oryza saliva) [23]; Rate 500 g/ha): 90 | Plant response rating, Rice (rice (Oryza saliva) [23]; Rate 62 g/ha): 0 | Plant response rating, Rice (rice (Oryza saliva) [23]; Rate 125 g/ha): 20 | Flatsedge plant response rating ([24]; Rate 250 g/ha): 100 | Flatsedge plant response rating ([24]; Rate 500 g/ha): 100 | Plant response rating, Flatsedge ([24]; Rate 62 g/ha): 90 | Plant response rating, Flatsedge ([24]; Rate 125 g/ha): 100 | Plant response rating (0 to 100), Nightshade (Nightshade): 45 | Plant response rating, Sunflower (Sunflower): 0

Reference: US7138361B2, “Herbicidal heterocycles” (E. I. du Pont de Nemours and Company, priority 2000, dated 2006)
